Measured values taken from paper PMC12186298, “Phase 1 clinical trial of eneboparatide, a novel PTH receptor 1 agonist” (Endocrine Connections, 2025).
Peptide text beside a SMILES is read from it.

How the values were obtained:
healthy subjects [1] = experiment: Antidrug antibodies (ADA) in plasma, Part B; assay type: in vivo, human; conditions: following 14 days of administration
Method: (§1) Safety and tolerability assessments consisted of adverse events (AEs), clinical laboratory (clinical chemistry, haematology, coagulation, and urinalysis), vital signs (blood pressure, pulse rate, respiratory rate, and temperature), 12-lead ECG (Part B), 24 h continuous cardiac monitoring (telemetry; Part A), body weight, physical examination, injection site reaction, and measurement of antidrug antibodies (ADA) in plasma (Part B).

healthy subjects [2] = experiment: Safety and tolerability, adverse events, Part B MAD
Method: A total of five sequential cohorts were included in Part B with ten subjects in each cohort (eight receiving eneboparatide at a dose of 10, 20, 40, 60 and 80 μg/day, respectively, and two receiving placebo in a randomized and double-blind manner). […] They were resident in the study unit until day 17 and FU evaluation was performed on day 21–25.
as §1

[3] = Part B, 10 μg/day sc 14 days, n = 8
[4] = Part B, 20 μg/day sc 14 days, n = 8
[5] = Part B, 40 μg/day sc 14 days, n = 8
[6] = Part B, 60 μg/day sc 14 days, n = 8
[7] = Part B, 80 μg/day sc 14 days, n = 8
[8] = Part B, total eneboparatide, n = 40

For `CC[C@H](C)[C@H](NC(=O)[C@H](CCC(=O)O)NC(=O)[C@H](C)NC(=O)[C@@H](NC(=O)[C@H](Cc1c[nH]cn1)NC(=O)[C@@H](NC(=O)[C@H](CCC(=O)O)NC(=O)[C@H](C)NC(=O)[C@@H](NC(=O)[C@H](CC(C)C)NC(=O)[C@H](CCCCN)NC(=O)[C@H](Cc1c[nH]cn1)NC(=O)[C@H](CC(C)C)NC(=O)[C@H](Cc1ccccc1)NC(=O)[C@H](C)NC(=O)[C@H](CCCNC(=N)N)NC(=O)[C@H](CCCNC(=N)N)NC(=O)[C@H](CCCNC(=N)N)NC(=O)[C@H](C)NC(=O)[C@H](CC(=O)O)NC(=O)[C@H](CCC(N)=O)NC(=O)[C@@H](NC(=O)[C@H](Cc1c[nH]c2ccccc12)NC(=O)[C@H](CCCCN)NC(=O)[C@H](C)NC(=O)[C@H](CCCNC(=N)N)NC(=O)[C@H](CCC(N)=O)NC(=O)[C@H](Cc1c[nH]cn1)NC(=O)[C@H](CCSC)NC(=O)[C@H](CC(C)C)NC(=O)[C@H](CCC(N)=O)NC(=O)[C@@H](NC(=O)[C@H](CCC(=O)O)NC(=O)[C@H](C)NC(=O)[C@@H](NC(=O)[C@H](C)N)C(C)C)[C@@H](C)CC)[C@@H](C)CC)[C@@H](C)CC)[C@@H](C)CC)[C@@H](C)O)C(=O)O` [eneboparatide] (H-AVAEIQLMHQRAKWIQDARRRAFLHKLIAEIHTAEI-OH; N-terminus and C-terminus assumed), the anti-eneboparatide antibodies (healthy subjects [1]) was “no anti-eneboparatide antibodies detected”, the “Abdominal pain, subjects with TEAE” value (healthy subjects [2]; [3]) was 0 and the “Application site irritation, subjects with TEAE” value (shortened to “Application site irritation”) (healthy subjects [2]; [3]) was 0. For the same molecule, the “Catheter site haematoma, subjects with TEAE” value (from here on “Catheter site haematoma”) (healthy subjects [2]; [3]) was 3, the “Catheter site pain, subjects with TEAE” value (healthy subjects [2]; [3]) was 1 and the “Decreased appetite, subjects with TEAE” value (healthy subjects [2]; [3]) was 0. The “Diarrhoea, subjects with TEAE” value (healthy subjects [2]; [3]) was 0, the “Dizziness, subjects with TEAE” value (healthy subjects [2]; [3]) was 0 and the “Dry skin, subjects with TEAE” value (healthy subjects [2]; [3]) was 0. For the same molecule, the “Dyspepsia, subjects with TEAE” value (healthy subjects [2]; [3]) was 0, the “Fatigue, subjects with TEAE” value (healthy subjects [2]; [3]) was 2 and the “Flatulence, subjects with TEAE” value (healthy subjects [2]; [3]) was 1. For the same molecule, the “Headache, subjects with TEAE” value (healthy subjects [2]; [3]) was 1, the “Injection site erythema, subjects with TEAE” value (“Injection site erythema” for short) (healthy subjects [2]; [3]) was 0 and the “Injection site haematoma, subjects with TEAE” value (from here on “Injection site haematoma”) (healthy subjects [2]; [3]) was 3. For the same molecule, the “Injection site pain, subjects with TEAE” value (healthy subjects [2]; [3]) was 1, the “Injection site pruritus, subjects with TEAE” value (from here on “Injection site pruritus”) (healthy subjects [2]; [3]) was 0 and the “Injection site tenderness, subjects with TEAE” value (“Injection site tenderness” for short) (healthy subjects [2]; [3]) was 0. For the same molecule, the “Insomnia, subjects with TEAE” value (healthy subjects [2]; [3]) was 0, the “Muscle spasms, subjects with TEAE” value (healthy subjects [2]; [3]) was 0 and the “Myalgia, subjects with TEAE” value (healthy subjects [2]; [3]) was 1. The “Nausea, subjects with TEAE” value (healthy subjects [2]; [3]) was 0, the “Somnolence, subjects with TEAE” value (healthy subjects [2]; [3]) was 1 and the “Vomiting, subjects with TEAE” value (healthy subjects [2]; [3]) was 0. The “Abdominal pain, subjects with TEAE” value (healthy subjects [2]; [4]) was 0, the “Application site irritation” value (healthy subjects [2]; [4]) was 3 and the “Catheter site haematoma” value (healthy subjects [2]; [4]) was 0. The “Catheter site pain, subjects with TEAE” value (healthy subjects [2]; [4]) was 0, the “Decreased appetite, subjects with TEAE” value (healthy subjects [2]; [4]) was 0 and the “Diarrhoea, subjects with TEAE” value (healthy subjects [2]; [4]) was 1. For the same molecule, the “Dizziness, subjects with TEAE” value (healthy subjects [2]; [4]) was 1, the “Dry skin, subjects with TEAE” value (healthy subjects [2]; [4]) was 2 and the “Dyspepsia, subjects with TEAE” value (healthy subjects [2]; [4]) was 1. For the same molecule, the “Fatigue, subjects with TEAE” value (healthy subjects [2]; [4]) was 0, the “Flatulence, subjects with TEAE” value (healthy subjects [2]; [4]) was 1 and the “Headache, subjects with TEAE” value (healthy subjects [2]; [4]) was 1. The “Injection site erythema” value (healthy subjects [2]; [4]) was 1, the “Injection site haematoma” value (healthy subjects [2]; [4]) was 3 and the “Injection site pain, subjects with TEAE” value (healthy subjects [2]; [4]) was 0. The “Injection site pruritus” value (healthy subjects [2]; [4]) was 2, the “Injection site tenderness” value (healthy subjects [2]; [4]) was 0 and the “Insomnia, subjects with TEAE” value (healthy subjects [2]; [4]) was 1. The “Muscle spasms, subjects with TEAE” value (healthy subjects [2]; [4]) was 0, the “Myalgia, subjects with TEAE” value (healthy subjects [2]; [4]) was 0 and the “Nausea, subjects with TEAE” value (healthy subjects [2]; [4]) was 2. The “Somnolence, subjects with TEAE” value (healthy subjects [2]; [4]) was 0, the “Vomiting, subjects with TEAE” value (healthy subjects [2]; [4]) was 0 and the “Abdominal pain, subjects with TEAE” value (healthy subjects [2]; [5]) was 1. The “Application site irritation” value (healthy subjects [2]; [5]) was 0, the “Catheter site haematoma” value (healthy subjects [2]; [5]) was 1 and the “Catheter site pain, subjects with TEAE” value (healthy subjects [2]; [5]) was 4. For the same molecule, the “Decreased appetite, subjects with TEAE” value (healthy subjects [2]; [5]) was 1, the “Diarrhoea, subjects with TEAE” value (healthy subjects [2]; [5]) was 2 and the “Dizziness, subjects with TEAE” value (healthy subjects [2]; [5]) was 0. The “Dry skin, subjects with TEAE” value (healthy subjects [2]; [5]) was 0, the “Dyspepsia, subjects with TEAE” value (healthy subjects [2]; [5]) was 2 and the “Fatigue, subjects with TEAE” value (healthy subjects [2]; [5]) was 0. The “Flatulence, subjects with TEAE” value (healthy subjects [2]; [5]) was 1, the “Headache, subjects with TEAE” value (healthy subjects [2]; [5]) was 3 and the “Injection site erythema” value (healthy subjects [2]; [5]) was 4. For the same molecule, the “Injection site haematoma” value (healthy subjects [2]; [5]) was 5, the “Injection site pain, subjects with TEAE” value (healthy subjects [2]; [5]) was 0 and the “Injection site pruritus” value (healthy subjects [2]; [5]) was 3. For the same molecule, the “Injection site tenderness” value (healthy subjects [2]; [5]) was 0, the “Insomnia, subjects with TEAE” value (healthy subjects [2]; [5]) was 1 and the “Muscle spasms, subjects with TEAE” value (healthy subjects [2]; [5]) was 2. For the same molecule, the “Myalgia, subjects with TEAE” value (healthy subjects [2]; [5]) was 4, the “Nausea, subjects with TEAE” value (healthy subjects [2]; [5]) was 1 and the “Somnolence, subjects with TEAE” value (healthy subjects [2]; [5]) was 3. The “Vomiting, subjects with TEAE” value (healthy subjects [2]; [5]) was 0, the “Abdominal pain, subjects with TEAE” value (healthy subjects [2]; [6]) was 1 and the “Application site irritation” value (healthy subjects [2]; [6]) was 0. For the same molecule, the “Catheter site haematoma” value (healthy subjects [2]; [6]) was 0, the “Catheter site pain, subjects with TEAE” value (healthy subjects [2]; [6]) was 0 and the “Decreased appetite, subjects with TEAE” value (healthy subjects [2]; [6]) was 2. The “Diarrhoea, subjects with TEAE” value (healthy subjects [2]; [6]) was 0, the “Dizziness, subjects with TEAE” value (healthy subjects [2]; [6]) was 1 and the “Dry skin, subjects with TEAE” value (healthy subjects [2]; [6]) was 0. The “Dyspepsia, subjects with TEAE” value (healthy subjects [2]; [6]) was 2, the “Fatigue, subjects with TEAE” value (healthy subjects [2]; [6]) was 1 and the “Flatulence, subjects with TEAE” value (healthy subjects [2]; [6]) was 1. The “Headache, subjects with TEAE” value (healthy subjects [2]; [6]) was 4, the “Injection site erythema” value (healthy subjects [2]; [6]) was 3 and the “Injection site haematoma” value (healthy subjects [2]; [6]) was 3. For the same molecule, the “Injection site pain, subjects with TEAE” value (healthy subjects [2]; [6]) was 2, the “Injection site pruritus” value (healthy subjects [2]; [6]) was 0 and the “Injection site tenderness” value (healthy subjects [2]; [6]) was 2. For the same molecule, the “Insomnia, subjects with TEAE” value (healthy subjects [2]; [6]) was 1, the “Muscle spasms, subjects with TEAE” value (healthy subjects [2]; [6]) was 0 and the “Myalgia, subjects with TEAE” value (healthy subjects [2]; [6]) was 0. For the same molecule, the “Nausea, subjects with TEAE” value (healthy subjects [2]; [6]) was 5, the “Somnolence, subjects with TEAE” value (healthy subjects [2]; [6]) was 3 and the “Vomiting, subjects with TEAE” value (healthy subjects [2]; [6]) was 3. For the same molecule, the “subjects with transient hypercalcaemia” value (healthy subjects [2]; Part B, 80 μg/d, well-tolerated, resolved spontaneously after day 14) was “six of the eight”, the “Abdominal pain, subjects with TEAE” value (healthy subjects [2]; [7]) was 0 and the “Application site irritation” value (healthy subjects [2]; [7]) was 0. The “Catheter site haematoma” value (healthy subjects [2]; [7]) was 1, the “Catheter site pain, subjects with TEAE” value (healthy subjects [2]; [7]) was 1 and the “Decreased appetite, subjects with TEAE” value (healthy subjects [2]; [7]) was 0. For the same molecule, the “Diarrhoea, subjects with TEAE” value (healthy subjects [2]; [7]) was 0, the “Dizziness, subjects with TEAE” value (healthy subjects [2]; [7]) was 1 and the “Dry skin, subjects with TEAE” value (healthy subjects [2]; [7]) was 0. The “Dyspepsia, subjects with TEAE” value (healthy subjects [2]; [7]) was 0, the “Fatigue, subjects with TEAE” value (healthy subjects [2]; [7]) was 0 and the “Flatulence, subjects with TEAE” value (healthy subjects [2]; [7]) was 0. The “Headache, subjects with TEAE” value (healthy subjects [2]; [7]) was 1, the “Injection site erythema” value (healthy subjects [2]; [7]) was 2 and the “Injection site haematoma” value (healthy subjects [2]; [7]) was 3. For the same molecule, the “Injection site pain, subjects with TEAE” value (healthy subjects [2]; [7]) was 0, the “Injection site pruritus” value (healthy subjects [2]; [7]) was 1 and the “Injection site tenderness” value (healthy subjects [2]; [7]) was 1. For the same molecule, the “Insomnia, subjects with TEAE” value (healthy subjects [2]; [7]) was 0, the “Muscle spasms, subjects with TEAE” value (healthy subjects [2]; [7]) was 0 and the “Myalgia, subjects with TEAE” value (healthy subjects [2]; [7]) was 0. The “Nausea, subjects with TEAE” value (healthy subjects [2]; [7]) was 4, the “Somnolence, subjects with TEAE” value (healthy subjects [2]; [7]) was 2 and the “Vomiting, subjects with TEAE” value (healthy subjects [2]; [7]) was 1. For the same molecule, the “Abdominal pain, subjects with TEAE” value (healthy subjects [2]; [8]) was 2 (5) n (%), the “Application site irritation” value (healthy subjects [2]; [8]) was 3 (7.5) n (%) and the “Catheter site haematoma” value (healthy subjects [2]; [8]) was 5 (12.5) n (%). For the same molecule, the “Catheter site pain, subjects with TEAE” value (healthy subjects [2]; [8]) was 6 (15) n (%), the “Decreased appetite, subjects with TEAE” value (healthy subjects [2]; [8]) was 3 (7.5) n (%) and the “Diarrhoea, subjects with TEAE” value (healthy subjects [2]; [8]) was 3 (7.5) n (%). For the same molecule, the “Dizziness, subjects with TEAE” value (healthy subjects [2]; [8]) was 3 (7.5) n (%), the “Dry skin, subjects with TEAE” value (healthy subjects [2]; [8]) was 2 (5) n (%) and the “Dyspepsia, subjects with TEAE” value (healthy subjects [2]; [8]) was 5 (12.5) n (%). For the same molecule, the “Fatigue, subjects with TEAE” value (healthy subjects [2]; [8]) was 3 (7.5) n (%), the “Flatulence, subjects with TEAE” value (healthy subjects [2]; [8]) was 4 (10) n (%) and the “Headache, subjects with TEAE” value (healthy subjects [2]; [8]) was 10 (25) n (%). For the same molecule, the “Injection site haematoma” value (healthy subjects [2]; [8]) was 17 (42.5) n (%), the “Injection site pain, subjects with TEAE” value (healthy subjects [2]; [8]) was 3 (7.5) n (%) and the “Injection site pruritus” value (healthy subjects [2]; [8]) was 6 (15) n (%). For the same molecule, the “Injection site tenderness” value (healthy subjects [2]; [8]) was 3 (7.5) n (%), the “Insomnia, subjects with TEAE” value (healthy subjects [2]; [8]) was 3 (7.5) n (%) and the “Muscle spasms, subjects with TEAE” value (healthy subjects [2]; [8]) was 2 (5) n (%). The “Myalgia, subjects with TEAE” value (healthy subjects [2]; [8]) was 5 (12.5) n (%), the “Nausea, subjects with TEAE” value (healthy subjects [2]; [8]) was 12 (30) n (%) and the “Somnolence, subjects with TEAE” value (healthy subjects [2]; [8]) was 9 (22.5) n (%). For the same molecule, the “Vomiting, subjects with TEAE” value (healthy subjects [2]; [8]) was 4 (10) n (%), the “telemetry (Part A) or ECG (Part B), blood pressure, heart rate, respiratory rate” value (healthy subjects [2]; Parts A and B) was “No changes of clinical relevance” and the “serious or severe AEs” value (healthy subjects [2]; Parts A and B: single up to 120 μg, multiple up to 80 μg/day for 14 days) was “No serious or severe AEs were reported”. The “vomiting (mild/moderate AE associated with hypercalcaemia), subjects” value (healthy subjects [2]; highest doses tested) was “four out of 40”.
